Measurements published in paper PMC11822212, “High-throughput screening identifies Aurora kinase B as a critical therapeutic target for Merkel cell carcinoma” (Nature Communications, 2025).

Columns and labels:
Format in all cases: cell-based, human
[1] = tested on: VP-MCC cell lines (WAGA, MKL-1, MKL-2); test: qHTS cell viability, VP-MCC cell lines as a group (mean AUC, VP.MCC.avg); conditions: re-tested in triplicate, follow-up screen
MCC13 cells (VN-MCC) = test: qHTS cell viability (CellTiter-Glo, 72 h; primary and follow-up small molecule screen); conditions: MCC13, 72h
MKL-1 cells (VP-MCC) = test: as above; conditions: MKL1, 72h
UISO cells (VN-MCC) = test: as above; conditions: UISO, 72h
WAGA cells (VP-MCC) = test: as above; conditions: WAGA, 72h
MKL-2 cells (VP-MCC) = test: as above; conditions: MKL2, 72h
MCC26 cells (VN-MCC) = test: as above; conditions: MCC26, 72h

## O=C(Nc1cccc(Cl)c1)Nc1ncc(CCNc2ncnc3ccsc23)s1 [SNS-314, reference compound]
[1]
  VP-MCC viability (in words): consistently and potently reduced VP-MCC viability
MCC13 cells (VN-MCC); Log (M) -5.33646
  Percent viability: 49.0%
MCC13 cells (VN-MCC); Log (M) -5.81358
  Percent viability: 56.7%
MCC13 cells (VN-MCC); Log (M) -6.2907
  Percent viability: 82.7%
MCC13 cells (VN-MCC); Log (M) -6.76782
  Percent viability: 93.1%
MCC13 cells (VN-MCC); Log (M) -7.24494
  Percent viability: 90.9%
MCC13 cells (VN-MCC); Log (M) -7.72207
  Percent viability: 100.8%
MCC13 cells (VN-MCC); Log (M) -8.19919
  Percent viability: 94.5%
MCC13 cells (VN-MCC); Log (M) -8.67631
  Percent viability: 106.6%
MCC13 cells (VN-MCC); Log (M) -9.15343
  Percent viability: 125.4%
MCC13 cells (VN-MCC); Log (M) -9.63055
  Percent viability: 116.5%
MCC13 cells (VN-MCC); Log (M) -10.1077
  Percent viability: 92.5%
MKL-1 cells (VP-MCC); Log (M) -5.33646
  Percent viability: 37.7%
MKL-1 cells (VP-MCC); Log (M) -5.81358
  Percent viability: 37.4%
MKL-1 cells (VP-MCC); Log (M) -6.2907
  Percent viability: 42.7%
MKL-1 cells (VP-MCC); Log (M) -6.76782
  Percent viability: 49.2%
MKL-1 cells (VP-MCC); Log (M) -7.24494
  Percent viability: 26.9%
MKL-1 cells (VP-MCC); Log (M) -7.72207
  Percent viability: 28.2%
MKL-1 cells (VP-MCC); Log (M) -8.19919
  Percent viability: 56.1%
MKL-1 cells (VP-MCC); Log (M) -8.67631
  Percent viability: 100.9%
MKL-1 cells (VP-MCC); Log (M) -9.15343
  Percent viability: 107.4%
MKL-1 cells (VP-MCC); Log (M) -9.63055
  Percent viability: 103.4%
MKL-1 cells (VP-MCC); Log (M) -10.1077
  Percent viability: 99.7%
UISO cells (VN-MCC); Log (M) -5.33646
  Percent viability: 21.7%
UISO cells (VN-MCC); Log (M) -5.81358
  Percent viability: 56.9%
UISO cells (VN-MCC); Log (M) -6.2907
  Percent viability: 70.9%
UISO cells (VN-MCC); Log (M) -6.76782
  Percent viability: 75.0%
UISO cells (VN-MCC); Log (M) -7.24494
  Percent viability: 93.3%
UISO cells (VN-MCC); Log (M) -7.72207
  Percent viability: 86.0%
UISO cells (VN-MCC); Log (M) -8.19919
  Percent viability: 89.1%
UISO cells (VN-MCC); Log (M) -8.67631
  Percent viability: 101.5%
UISO cells (VN-MCC); Log (M) -9.15343
  Percent viability: 108.7%
UISO cells (VN-MCC); Log (M) -9.63055
  Percent viability: 96.8%
UISO cells (VN-MCC); Log (M) -10.1077
  Percent viability: 98.0%
WAGA cells (VP-MCC); Log (M) -5.33646
  Percent viability: 42.9%
WAGA cells (VP-MCC); Log (M) -5.81358
  Percent viability: 32.8%
WAGA cells (VP-MCC); Log (M) -6.2907
  Percent viability: 39.2%
WAGA cells (VP-MCC); Log (M) -6.76782
  Percent viability: 41.9%
WAGA cells (VP-MCC); Log (M) -7.24494
  Percent viability: 24.7%
WAGA cells (VP-MCC); Log (M) -7.72207
  Percent viability: 26.4%
WAGA cells (VP-MCC); Log (M) -8.19919
  Percent viability: 38.2%
WAGA cells (VP-MCC); Log (M) -8.67631
  Percent viability: 100.0%
WAGA cells (VP-MCC); Log (M) -9.15343
  Percent viability: 100.0%
WAGA cells (VP-MCC); Log (M) -9.63055
  Percent viability: 102.6%
WAGA cells (VP-MCC); Log (M) -10.1077
  Percent viability: 100.0%
MKL-2 cells (VP-MCC); Log (M) -5.33646
  Percent viability: 20.8%
MKL-2 cells (VP-MCC); Log (M) -5.81358
  Percent viability: 47.8%
MKL-2 cells (VP-MCC); Log (M) -6.2907
  Percent viability: 56.2%
MKL-2 cells (VP-MCC); Log (M) -6.76782
  Percent viability: 47.9%
MKL-2 cells (VP-MCC); Log (M) -7.24494
  Percent viability: 43.4%
MKL-2 cells (VP-MCC); Log (M) -7.72207
  Percent viability: 52.1%
MKL-2 cells (VP-MCC); Log (M) -8.19919
  Percent viability: 55.1%
MKL-2 cells (VP-MCC); Log (M) -8.67631
  Percent viability: 62.3%
MKL-2 cells (VP-MCC); Log (M) -9.15343
  Percent viability: 100.0%
MKL-2 cells (VP-MCC); Log (M) -9.63055
  Percent viability: 104.9%
MKL-2 cells (VP-MCC); Log (M) -10.1077
  Percent viability: 91.4%
MCC26 cells (VN-MCC); Log (M) -5.33646
  Percent viability: 72.0%
MCC26 cells (VN-MCC); Log (M) -5.81358
  Percent viability: 84.0%
MCC26 cells (VN-MCC); Log (M) -6.2907
  Percent viability: 86.8%
MCC26 cells (VN-MCC); Log (M) -6.76782
  Percent viability: 90.3%
MCC26 cells (VN-MCC); Log (M) -7.24494
  Percent viability: 93.9%
MCC26 cells (VN-MCC); Log (M) -7.72207
  Percent viability: 97.6%
MCC26 cells (VN-MCC); Log (M) -8.19919
  Percent viability: 94.0%
MCC26 cells (VN-MCC); Log (M) -8.67631
  Percent viability: 99.1%
MCC26 cells (VN-MCC); Log (M) -9.15343
  Percent viability: 95.5%
MCC26 cells (VN-MCC); Log (M) -9.63055
  Percent viability: 91.7%
MCC26 cells (VN-MCC); Log (M) -10.1077
  Percent viability: 91.9%

## CCS(=O)(=O)c1cccc(-c2cc(C(=O)NC3CCN(C)CC3)c(C)c3[nH]c4ncc(C)cc4c23)c1 [TAK-901, reference compound]
[1]
  VP-MCC viability (in words): consistently and potently reduced VP-MCC viability
MCC13 cells (VN-MCC); Log (M) -5.33646
  Percent viability: 26.1%
MCC13 cells (VN-MCC); Log (M) -5.81358
  Percent viability: 79.3%
MCC13 cells (VN-MCC); Log (M) -6.2907
  Percent viability: 86.5%
MCC13 cells (VN-MCC); Log (M) -6.76782
  Percent viability: 99.0%
MCC13 cells (VN-MCC); Log (M) -7.24494
  Percent viability: 119.7%
MCC13 cells (VN-MCC); Log (M) -7.72207
  Percent viability: 113.0%
MCC13 cells (VN-MCC); Log (M) -8.19919
  Percent viability: 118.4%
MCC13 cells (VN-MCC); Log (M) -8.67631
  Percent viability: 116.9%
MCC13 cells (VN-MCC); Log (M) -9.15343
  Percent viability: 104.5%
MCC13 cells (VN-MCC); Log (M) -9.63055
  Percent viability: 119.9%
MCC13 cells (VN-MCC); Log (M) -10.1077
  Percent viability: 98.3%
MKL-1 cells (VP-MCC); Log (M) -5.33646
  Percent viability: 3.5%
MKL-1 cells (VP-MCC); Log (M) -5.81358
  Percent viability: 27.5%
MKL-1 cells (VP-MCC); Log (M) -6.2907
  Percent viability: 14.2%
MKL-1 cells (VP-MCC); Log (M) -6.76782
  Percent viability: 38.9%
MKL-1 cells (VP-MCC); Log (M) -7.24494
  Percent viability: 42.7%
MKL-1 cells (VP-MCC); Log (M) -7.72207
  Percent viability: 48.2%
MKL-1 cells (VP-MCC); Log (M) -8.19919
  Percent viability: 61.6%
MKL-1 cells (VP-MCC); Log (M) -8.67631
  Percent viability: 102.5%
MKL-1 cells (VP-MCC); Log (M) -9.15343
  Percent viability: 100.0%
MKL-1 cells (VP-MCC); Log (M) -9.63055
  Percent viability: 106.9%
MKL-1 cells (VP-MCC); Log (M) -10.1077
  Percent viability: 62.6%
UISO cells (VN-MCC); Log (M) -5.33646
  Percent viability: 2.3%
UISO cells (VN-MCC); Log (M) -5.81358
  Percent viability: 2.9%
UISO cells (VN-MCC); Log (M) -6.2907
  Percent viability: 16.4%
UISO cells (VN-MCC); Log (M) -6.76782
  Percent viability: 39.6%
UISO cells (VN-MCC); Log (M) -7.24494
  Percent viability: 65.2%
UISO cells (VN-MCC); Log (M) -7.72207
  Percent viability: 80.6%
UISO cells (VN-MCC); Log (M) -8.19919
  Percent viability: 77.5%
UISO cells (VN-MCC); Log (M) -8.67631
  Percent viability: 101.9%
UISO cells (VN-MCC); Log (M) -9.15343
  Percent viability: 102.4%
UISO cells (VN-MCC); Log (M) -9.63055
  Percent viability: 103.6%
UISO cells (VN-MCC); Log (M) -10.1077
  Percent viability: 103.5%
WAGA cells (VP-MCC); Log (M) -5.33646
  Percent viability: 14.8%
WAGA cells (VP-MCC); Log (M) -5.81358
  Percent viability: 27.2%
WAGA cells (VP-MCC); Log (M) -6.2907
  Percent viability: 24.4%
WAGA cells (VP-MCC); Log (M) -6.76782
  Percent viability: 45.2%
WAGA cells (VP-MCC); Log (M) -7.24494
  Percent viability: 29.7%
WAGA cells (VP-MCC); Log (M) -7.72207
  Percent viability: 26.6%
WAGA cells (VP-MCC); Log (M) -8.19919
  Percent viability: 95.5%
WAGA cells (VP-MCC); Log (M) -8.67631
  Percent viability: 121.9%
WAGA cells (VP-MCC); Log (M) -9.15343
  Percent viability: 112.0%
WAGA cells (VP-MCC); Log (M) -9.63055
  Percent viability: 114.1%
WAGA cells (VP-MCC); Log (M) -10.1077
  Percent viability: 123.7%
MKL-2 cells (VP-MCC); Log (M) -5.33646
  Percent viability: 3.8%
MKL-2 cells (VP-MCC); Log (M) -5.81358
  Percent viability: 12.3%
MKL-2 cells (VP-MCC); Log (M) -6.2907
  Percent viability: 44.7%
MKL-2 cells (VP-MCC); Log (M) -6.76782
  Percent viability: 52.1%
MKL-2 cells (VP-MCC); Log (M) -7.24494
  Percent viability: 44.0%
MKL-2 cells (VP-MCC); Log (M) -7.72207
  Percent viability: 44.3%
MKL-2 cells (VP-MCC); Log (M) -8.19919
  Percent viability: 48.4%
MKL-2 cells (VP-MCC); Log (M) -8.67631
  Percent viability: 94.9%
MKL-2 cells (VP-MCC); Log (M) -9.15343
  Percent viability: 110.4%
MKL-2 cells (VP-MCC); Log (M) -9.63055
  Percent viability: 106.9%
MKL-2 cells (VP-MCC); Log (M) -10.1077
  Percent viability: 102.9%
MCC26 cells (VN-MCC); Log (M) -5.33646
  Percent viability: 25.9%
MCC26 cells (VN-MCC); Log (M) -5.81358
  Percent viability: 20.6%
MCC26 cells (VN-MCC); Log (M) -6.2907
  Percent viability: 33.0%
MCC26 cells (VN-MCC); Log (M) -6.76782
  Percent viability: 64.5%
MCC26 cells (VN-MCC); Log (M) -7.24494
  Percent viability: 80.5%
MCC26 cells (VN-MCC); Log (M) -7.72207
  Percent viability: 93.5%
MCC26 cells (VN-MCC); Log (M) -8.19919
  Percent viability: 87.4%
MCC26 cells (VN-MCC); Log (M) -8.67631
  Percent viability: 96.2%
MCC26 cells (VN-MCC); Log (M) -9.15343
  Percent viability: 90.5%
MCC26 cells (VN-MCC); Log (M) -9.63055
  Percent viability: 91.5%
MCC26 cells (VN-MCC); Log (M) -10.1077
  Percent viability: 63.2%
